According to patent US20040097740A1, “Method for producing delta 1-pyrrolines” (priority 2000, published 2004):
Read-outs that look alike come from different tables or passages of the source.

Columns and labels:
[1] = log P determination by HPLC on reverse-phase column (C 18), EEC Directive 79/831 Annex V.A8; type: physicochemical; settings: 43° C.; for chromatographic logP: reverse-phase HPLC column (C 18)
Protocol: The determination is carried out in the acidic range at pH 2.3 using the mobile phases 0.1% aqueous phosphoric acid and acetonitrile; linear gradient from 10% acetonitrile to 90% acetonitrile.

[2] = pH 2.3, pH 2.3, preparation example, 0.1% aqueous phosphoric acid/acetonitrile gradient, read-out: HPLC: log P (pH 2.3)

Compound | HPLC: log P (pH 2.3) ([1]; pH 2.3, preparation example, 0.1% aqueous phosphoric acid/acetonitrile gradient) | chromatographic logP [1, 2] | melting point [°C] | chromatographic logP ([1]; pH 2.3, azides of the formula (II), acidic range pH 2.3, read-out: logP*) | chromatographic logP ([1]; pH 2.3, haloketones of the formula (III), acidic range pH 2.3, read-out: logP*)
Fc1cccc(F)c1C1=NC(c2ccc(Br)cc2)CC1 (stereo not drawn) [Example I-1, 2-(4-bromophenyl)-5-(2,6-difluorophenyl)-3,4-dihydro-2H-pyrrole] | 2.71 | 2.72 | 48 |  | 
[N-]=[N+]=NC(CCC(=O)c1c(F)cccc1F)c1ccc(Br)cc1 (stereo not drawn) [II-1, 4-(4-bromophenyl)-4-azido-1-(2,6-difluorophenyl)-1-butanone] |  | 4.47 |  | 4.47 | 
O=C(CCC(Cl)c1ccc(Br)cc1)c1c(F)cccc1F (stereo not drawn) [III-1, 4-(4-bromophenyl)-4-chloro-1-(2,6-difluorophenyl)-1-butanone] |  | 4.52 |  |  | 4.43
O=C(/C=C/c1ccc(Br)cc1)c1c(F)cccc1F [VI-1, (2E)-3-(4-bromophenyl)-1-(2,6-difluorophenyl)-2-propen-1-one] |  |  | 71 |  | 
O=C(c1c(F)cccc1F)C1CC1c1ccc(Br)cc1 (stereo not drawn) [Example V-1, [2-(4-bromophenyl)cyclopropyl](2,6-difluorophenyl)methanone] |  |  | 64 to 65 |  | 
